# Measured values reported in patent publication US12168650B2, “Crystalline forms of 3-(5-(2-hydroxy-2-methylpropoxy)-6-methylpyrazin-2-yl)-1H-indole-7-carbonitrile” (NIDO BIOSCIENCES, INC., priority 2022, dated 2024).
# Where two headings read alike, the source gives them in different places.
# Experiments:
# [1] = Solubility in solvents and mixture solvents; format: physicochemical
# Description: As there may be potential Form A/H (Anhydrate) or Form I (THF solvate) in water or THF system according to the polymorph screening report, the use of water and THF were avoided in following study. […]
# [2] = Competitive equilibration experiments of anhydrates; settings: at both 25° C. and 50° C.
# Method: Relative stability of the anhydrate Forms A, C, H and J was investigated with competitive equilibration experiments.
# Relative stability of the anhydrates Forms C, K and L was investigated with competitive equilibration experiments.
# To determine relative stability of anhydrates, competitive equilibration experiments were conducted in different solvent systems.
# About 2 mg of each anhydrate was added to 0.3-0.4 mL saturated solutions of selected solvents. Obtained suspensions were stirred at 25° C. for 3-10 days, respectively. Solid parts (wet cakes) were isolated by centrifugation filtration and investigated by XRPD.
# [3] = Solubility in aqueous media at 37° C.; format: physicochemical; settings: for XRPD of residual solids: 24 h; for solubility at 2 h / solubility at 24 h: thermodynamic from solid
# Method: The anhydrate Form C (equivalent to 8 mg of free form) was weighed into a 20 mL glass vial. 4 mL of solubility medium was added. Obtained suspensions were stirred at 37° C. at 400 rpm. Some of the suspensions were taken out at 2 hours and 24 hours, respectively. Then they were centrifuged at 3700 at 14,000 rpm for 5 (m. Supernatants were analyzed by HPLC and pH meter for solubility and pH, respectively. Residual solids (wet cakes) were characterized by XRPD to determine physical form.
# [4] = Interconversion of polymorphs (heating, dehydration, humidity, equilibration); format: physicochemical
# Description: In total, 15 forms were identified to be polymorphs or pseudo-polymorphs of the free form, including seven anhydrates, Forms A, C, H, J, K. L and O; four hydrates, Forms B, F, M and N; and three solvates, Forms D, E and I. In addition, a metastable form, Form G, and an amorphous form were also obtained.
# The interconversion relation of polymorphs identified is outlined in FIG. 5.
# [5] = pH 7.0 phosphate buffer (50 mM)
# [6] = aqueous buffer, pH 3.0 citrate buffer (50 mM)
# [7] = aqueous buffer, pH 5.0 acetate buffer (50 mM)
# [8] = aqueous buffer, pH 7.0 phosphate buffer (50 mM)
# [9] = simulated gastric fluid, pH 1.0 HCl solution (0.1N)
structure (smiles),measurement,setting,value
"Cc1nc(-c2c[nH]c3c(C#N)cccc23)cnc1OCC(C)(C)O [Form C, 3-(5-(2-hydroxy-2-methylpropoxy)-6-methylpyrazin-2-yl)-1H-indole-7-carbonitrile]",XRPD,"[1]; 2-ME-THF/n-hep mixtures, 50 ° C. (printed at 4/0.5, probably merged for all rows)",Form C
same,Solubility,"[1]; 2-MeTHF, 25° C.",117 mg/mL solvent
same,Solubility,"[1]; 2-MeTHF, 50° C.",154 mg/mL solvent
same,Solubility,"[1]; 2-MeTHF/n-heptane 1/1 (v/v), organic solvent or mixture, thermodynamic from solid, 2-ME-THF/n-hep = 1/1 (v/v), 25 ° C., read-out: Solubility",13000 µg/mL
same,Solubility,"[1]; 2-MeTHF/n-heptane 1/2 (v/v), organic solvent or mixture, thermodynamic from solid, 2-ME-THF/n-hep = 1/2 (v/v), 25 ° C., read-out: Solubility",~4000 µg/mL
same,Solubility,"[1]; 2-MeTHF/n-heptane 1/3 (v/v), organic solvent or mixture, thermodynamic from solid, 2-ME-THF/n-hep = 1/3 (v/v), 25 ° C., read-out: Solubility",~2000 µg/mL
same,Solubility,"[1]; 2-MeTHF/n-heptane 4/0.5 (v/v), organic solvent or mixture, thermodynamic from solid, 2-ME-THF/n-hep = 4/0.5 (v/v), 50 ° C., read-out: Solubility",122000 µg/mL
same,Solubility,"[1]; 2-MeTHF/n-heptane 4/1 (v/v), organic solvent or mixture, thermodynamic from solid, 2-ME-THF/n-hep = 4/1 (v/v), 50 ° C., read-out: Solubility",90000 µg/mL
same,Solubility,"[1]; 2-MeTHF/n-heptane 4/2 (v/v), organic solvent or mixture, thermodynamic from solid, 2-ME-THF/n-hep = 4/2 (v/v), 50 ° C., read-out: Solubility",49000 µg/mL
same,Solubility,"[1]; 2-MeTHF/n-heptane 4/4 (v/v), organic solvent or mixture, thermodynamic from solid, 2-ME-THF/n-hep = 4/4 (v/v), 50 ° C., read-out: Solubility",21000 µg/mL
same,Solubility,"[1]; 2-MeTHF/n-heptane 4/8 (v/v), organic solvent or mixture, thermodynamic from solid, 2-ME-THF/n-hep = 4/8 (v/v), 50 ° C., read-out: Solubility",10000 µg/mL
same,Solubility,"[1]; 2-MeTHF/n-heptane 4/12 (v/v), organic solvent or mixture, thermodynamic from solid, 2-ME-THF/n-hep = 4/12 (v/v), 50 ° C., read-out: Solubility",5000 µg/mL
same,Solubility,"[1]; Acetone, 25° C.",66 mg/mL solvent
same,Solubility,"[1]; Acetone, 50° C.",122 mg/mL solvent
same,Solubility,"[1]; EA, 25° C.",32 mg/mL solvent
same,Solubility,"[1]; EA, 50° C.",58 mg/mL solvent
same,XRPD,"[1]; EA, 50° C. (cell printed at this row, probably merged downwards)",Form C
same,Solubility,"[1]; Ethanol, 25° C.",27 mg/mL solvent
same,Solubility,"[1]; Ethanol, 50° C.",64 mg/mL solvent
same,Solubility,"[1]; Heptane, 25° C.",~2 mg/mL solvent
same,Solubility,"[1]; Heptane, 50° C.",~3 mg/mL solvent
same,Solubility,"[1]; IPA, 25° C.",14 mg/mL solvent
same,Solubility,"[1]; IPA, 50° C.",29 mg/mL solvent
same,Solubility,"[1]; MCH, 25° C.",~3 mg/mL solvent
same,Solubility,"[1]; MCH, 50° C.",~3 mg/mL solvent
same,Solubility,"[1]; MEK, 25° C.",63 mg/mL solvent
same,Solubility,"[1]; MEK, 50° C.",110 mg/mL solvent
same,Solubility,"[1]; MEK/n-heptane 1/1 (v/v), organic solvent or mixture, thermodynamic from solid, MEK/n-hep = 1/1 (v/v), 25 ° C., read-out: Solubility",16000 µg/mL
same,Solubility,"[1]; MEK/n-heptane 1/2 (v/v), organic solvent or mixture, thermodynamic from solid, MEK/n-hep = 1/2 (v/v), 25 ° C., read-out: Solubility",6000 µg/mL
same,Solubility,"[1]; MEK/n-heptane 1/3 (v/v), organic solvent or mixture, thermodynamic from solid, MEK/n-hep = 1/3 (v/v), 25 ° C., read-out: Solubility",~3000 µg/mL
same,Solubility,"[1]; MIBK, 25° C.",21 mg/mL solvent
same,Solubility,"[1]; MIBK, 50° C.",28 mg/mL solvent
same,Solubility,"[1]; THF, 25° C.",247 mg/mL solvent
same,Solubility,"[1]; THF, 50° C.",>200 mg/mL solvent
same,Solubility,"[1]; Toluene, 25° C.",5 mg/mL solvent
same,Solubility,"[1]; Toluene, 50° C.",5 mg/mL solvent
same,XRPD,"[1]; Water, 25° C. (cell printed at this row, probably merged downwards)",Form C
same,Solubility,"[1]; Water, 25° C., read-out: Solubility",~1000 µg/mL
same,Solubility,"[1]; Water, 50° C.",~0 mg/mL solvent
same,XRPD,"[1]; Water, 50° C. (cell printed at this row, probably merged downwards)",Form C
same,Solubility,"[1]; acetone/n-heptane 1/1 (v/v), organic solvent or mixture, thermodynamic from solid, Acetone/n-hep = 1/1 (v/v), 25 ° C., read-out: Solubility",18000 µg/mL
same,Solubility,"[1]; acetone/n-heptane 1/2 (v/v), organic solvent or mixture, thermodynamic from solid, Acetone/n-hep = 1/2 (v/v), 25 ° C., read-out: Solubility",10000 µg/mL
same,Solubility,"[1]; acetone/n-heptane 1/3 (v/v), organic solvent or mixture, thermodynamic from solid, Acetone/n-hep = 1/3 (v/v), 25 ° C., read-out: Solubility",5000 µg/mL
same,Solubility in words,"[1]; in acetone, THF, 2-MeTHF, and MEK",high solubility
same,Solubility in words,"[1]; in water, n-heptane, and MCH",poor solubility
same,XRPD,"[1]; mixture solvents, 25 ° C. (printed at Acetone/MCH = 1/1, probably merged for all rows)",Form C
same,Solubility,"[1]; n-PrOH, 25° C.",21 mg/mL solvent
same,Solubility,"[1]; n-PrOH, 50° C.",48 mg/mL solvent
same,Solubility,"[1]; organic solvent or mixture, thermodynamic from solid, 2-MeTHF/MCH = 1/1 (v/v), 25 ° C., read-out: Solubility",18000 µg/mL
same,Solubility,"[1]; organic solvent or mixture, thermodynamic from solid, 2-MeTHF/MCH = 1/2 (v/v), 25 ° C., read-out: Solubility",6000 µg/mL
same,Solubility,"[1]; organic solvent or mixture, thermodynamic from solid, 2-MeTHF/MCH = 1/3 (v/v), 25 ° C., read-out: Solubility",~4000 µg/mL
same,Solubility,"[1]; organic solvent or mixture, thermodynamic from solid, Acetone/MCH = 1/1 (v/v), 25 ° C., read-out: Solubility",30000 µg/mL
same,Solubility,"[1]; organic solvent or mixture, thermodynamic from solid, Acetone/MCH = 1/2 (v/v), 25 ° C., read-out: Solubility",15000 µg/mL
same,Solubility,"[1]; organic solvent or mixture, thermodynamic from solid, MEK/MCH = 1/1 (v/v), 25 ° C., read-out: Solubility",20000 µg/mL
same,Solubility,"[1]; organic solvent or mixture, thermodynamic from solid, MEK/MCH = 1/2 (v/v), 25 ° C., read-out: Solubility",9000 µg/mL
same,Relative thermodynamic stability of anhydrates,[2],thermodynamically stable anhydrate
same,XRPD of residual solids,[3]; pH 1.0 HCl solution (0.1N),Form C
same,XRPD of residual solids,[3]; pH 3.0 citrate buffer (50 mM),Form C
same,XRPD of residual solids,[3]; pH 5.0 acetate buffer (50 mM),Form C
same,XRPD of residual solids,[3]; [5],Form C
same,solubility at 2 h,[3]; [6],5.97 µg/mL
same,solubility at 24 h,[3]; [6],4.08 µg/mL
same,solubility at 2 h,[3]; [7],5.44 µg/mL
same,solubility at 24 h,[3]; [7],3.85 µg/mL
same,solubility at 2 h,[3]; [8],5.43 µg/mL
same,solubility at 24 h,[3]; [8],11.6 µg/mL
same,24 h (pH) of supernatant,[3]; pH 1.0 HCl solution (0.1N),1.0
same,24 h (pH) of supernatant,[3]; pH 3.0 citrate buffer (50 mM),3.1
same,24 h (pH) of supernatant,[3]; pH 5.0 acetate buffer (50 mM),5.1
same,24 h (pH) of supernatant,[3]; [5],7.3
same,solubility at 2 h,[3]; [9],17 µg/mL
same,solubility at 24 h,[3]; [9],14.6 µg/mL
same,Stability compared to the other polymorph forms,[4],most stable polymorph
